Results reported in US20250051346A1 (priority 2021, published 2025).
Where two headings read alike, the source gives them in different places.

How the values were obtained:
5-HT2A [1] = biological target: T1, 5-HT2A (Homo sapiens, UniProt P28223); experiment: Serotonin 5-HT2A in vitro cellular IPOne agonism assay; assay type: cell-based; design: host or cells: CHO-K1; settings: CHO-K1 cells, 60 min
Protocol: Serotonin 5-HT2A In Vitro Cellular IPOne Agonism Assay. The 5-HT2A IPOne HTRF assay was performed at Epics Therapeutics S.A. (Belgium, FAST-0505I) using conventional methods. Briefly, CHO-K1 cells expressing human recombinant 5-HT2A receptor grown to mid-log phase in culture media without antibiotics were detached with PBS-EDTA, centrifuged, and resuspended in medium without antibiotics buffer. 20,000 cells are distributed in a 96 well plate and incubated overnight at 37° C. with 5% CO2.
For agonist testing, the medium was removed and 20 μl of assay buffer plus 20 μl of test compound or reference agonist were added in each well. The plate was incubated for 60 min. at 37° C. with 5% CO2.
After addition of the lysis buffer containing IP1-d2 and anti-IP1 cryptate detection reagents, plates were incubated 1-hour at room temperature, and fluorescence ratios were measured according to the manufacturer specification, with the HTRF kit.

5-HT2A [2] = biological target: T1, 5-HT2A; experiment: Serotonin 5-HT2A in vitro radioligand binding competition assay; design: purchased Epics Therapeutics S.A. (Belgium), contract assay FAST-0505B; host or cells: membrane extracts; settings: [3H]-DOI radiotracer, membrane extracts, read-out: 5HT2A R[…] ACTIVITY
Protocol: Serotonin 5-HT2A In Vitro Radioligand Binding Competition Assay. The 5-HT2A radioligand binding competition assay was performed at Epics Therapeutics S.A. (Belgium, FAST-0505B) using conventional methods. Briefly, competition binding was performed in duplicate in the wells of a 96 well plate (Master Block, Greiner, 786201) containing binding buffer (optimized for each receptor), membrane extracts (amount of protein/well optimized for each receptor), radiotracer [^3H]-DOI (final concentration optimized for each receptor) and test compound. Nonspecific binding was determined by co-incubation with 200-fold excess of cold competitor. The samples were incubated in a final volume of 0.1 ml at a temperature and for a duration optimized for each receptor and then filtered over filter plates. Filters were washed six times with 0.5 ml of ice-cold washing buffer (optimized for each receptor) and 50 μl of Microscint 20 (Packard) were added in each well. The plates were incubated 15 min on an orbital shaker and then counted with a TopCount™ for 1 min/well.

T1 sequence (P28223 whole entry): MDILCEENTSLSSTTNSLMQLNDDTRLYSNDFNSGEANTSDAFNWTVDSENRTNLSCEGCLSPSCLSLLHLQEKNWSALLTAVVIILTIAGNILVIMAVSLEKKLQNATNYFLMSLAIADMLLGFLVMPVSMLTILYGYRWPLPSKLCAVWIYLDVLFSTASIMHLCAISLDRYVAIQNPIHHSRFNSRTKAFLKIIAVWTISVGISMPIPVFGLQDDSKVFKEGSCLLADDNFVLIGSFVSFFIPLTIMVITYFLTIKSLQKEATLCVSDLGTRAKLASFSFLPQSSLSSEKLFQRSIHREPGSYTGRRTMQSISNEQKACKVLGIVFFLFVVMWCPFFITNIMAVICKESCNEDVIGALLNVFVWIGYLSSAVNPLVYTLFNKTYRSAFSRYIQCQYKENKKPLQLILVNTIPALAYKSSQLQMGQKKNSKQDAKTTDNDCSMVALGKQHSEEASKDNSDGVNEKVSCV

Row | SMILES | EC50 (5-HT2A [1]; benzothiophenes) [nM] | IC50 (5-HT2A [2]; benzothiophenes) [nM] | EC50 (5-HT2A [1]; benzofurans) [nM] | IC50 (5-HT2A [2]; benzofurans) [nM]
1 | FC(F)(F)Oc1cccc2sc3c(c12)CCNCC3 [Compound 67, 10-(trifluoromethoxy)-2,3,4,5-tetrahydro-1H-benzo[4,5]thieno[2,3-d]azepine] | 10 to 100 | 10 to 100 |  | 
2 | CN1CCCc2oc3cccc(F)c3c2C1 [Compound 4, 10-fluoro-2-methyl-2,3,4,5-tetrahydro-1H-benzofuro[3,2-c]azepine] |  |  | > 10000 | 1000 to 10000
3 | CN1CCCc2oc3cc(C(F)(F)F)ccc3c2C1 [Compound 52, 2-methyl-8-(trifluoromethyl)-2,3,4,5-tetrahydro-1H-benzofuro[3,2-c]azepine] |  |  | > 10000 | 1000 to 10000
4 | COc1ccc2c3c(oc2c1)CCN(C1CCC1)CC3 [Compound 25, 3-cyclobutyl-8-methoxy-2,3,4,5-tetrahydro-1H-benzofuro[2,3-d]azepine] |  |  | > 10000 | > 10000
5 | FC(F)(F)Oc1ccc2c3c(oc2c1)CCNCC3 [Compound 44, 8-(trifluoromethoxy)-2,3,4,5-tetrahydro-1H-benzofuro[2,3-d]azepine] |  |  | 101 to 1000 | 1000 to 10000
6 | c1ccc2c3c(oc2c1)CCNCC3 [Compound 31, 2,3,4,5-tetrahydro-1H-benzofuro[2,3-d]azepine] |  |  | 101 to 1000 | 101 to 1000
7 | Fc1cccc2oc3c(c12)CCN(C1CCC1)CC3 [Compound 2, 3-cyclobutyl-10-fluoro-2,3,4,5-tetrahydro-1H-benzofuro[2,3-d]azepine] |  |  | 1000 to 10000 | 1000 to 10000
8 | CN1CCCc2oc3ccccc3c2C1 [Compound 21, 2-methyl-2,3,4,5-tetrahydro-1H-benzofuro[3,2-c]azepine] |  |  | > 10000 | > 10000
9 | FC(F)(F)Oc1ccc2c3c(oc2c1)CCCNC3 [Compound 49, 8-(trifluoromethoxy)-2,3,4,5-tetrahydro-1H-benzofuro[3,2-c]azepine] |  |  | 1000 to 10000 | 1000 to 10000
10 | CN1CCCc2oc3cc(OCc4ccccc4)ccc3c2C1 [Compound 54, 8-(benzyloxy)-2-methyl-2,3,4,5-tetrahydro-1H-benzofuro[3,2-c]azepine] |  |  | > 10000 | 101 to 1000
11 | FC(F)(F)Oc1cccc2sc3c(c12)CCN(C1CCC1)CC3 [Compound 68, 3-cyclobutyl-10-(trifluoromethoxy)-2,3,4,5-tetrahydro-1H-benzo[4,5]thieno[2,3-d]azepine] | 1000 to 10000 | 1000 to 10000 |  | 
12 | c1ccc2c3c(sc2c1)CCNCC3 [Compound 65, 2,3,4,5-tetrahydro-1H-benzo[4,5]thieno[2,3-d]azepine] | 101 to 1000 | 10 to 100 |  | 
13 | CN1CCc2oc3cc(OCc4ccccc4)ccc3c2CC1 [Compound 41, 8-(benzyloxy)-3-methyl-2,3,4,5-tetrahydro-1H-benzofuro[2,3-d]azepine] |  |  | > 10000 | 101 to 1000
14 | FC(F)(F)c1ccc2c3c(oc2c1)CCNCC3 [Compound 43, 8-(trifluoromethyl)-2,3,4,5-tetrahydro-1H-benzofuro[2,3-d]azepine] |  |  | 101 to 1000 | 1000 to 10000
15 | Fc1cccc2oc3c(c12)CCNCC3 [Compound 10, 10-fluoro-2,3,4,5-tetrahydro-1H-benzofuro[2,3-d]azepine] |  |  | 101 to 1000 | 101 to 1000
16 | COc1ccc2c3c(oc2c1)CCCN(C1CCC1)C3 [Compound 12, 2-cyclobutyl-8-methoxy-2,3,4,5-tetrahydro-1H-benzofuro[3,2-c]azepine] |  |  | > 10000 | > 10000
17 | c1ccc2c3c(oc2c1)CCCN(C1CCC1)C3 [Compound 20, 2-cyclobutyl-2,3,4,5-tetrahydro-1H-benzofuro[3,2-c]azepine] |  |  | > 10000 | > 10000
